Source: patent publication US20260007133A1, “HERBICIDAL COMPOSITION COMPRISING AZINE COMPOUNDS” (BASF SE, priority 2022, published 2026)

Experiments:
Type in all cases: in vivo
Setaria viridis = experiment: Greenhouse pre-emergence (PRE) herbicidal test on SETVI; conditions: PRE
Method in brief: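 First, each species was sown separately in loamy sand containing about 3.0% humus. Then the aqueous active compound was applied by finely distributing nozzles straight after sowing, pots were gently irrigated and covered with transparent hoods, and injury was assessed on a 0–100 scale at 20 DAT.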

Alopecurus myosuroides = experiment: Greenhouse pre-emergence (PRE) herbicidal test on ALOMY; conditions: PRE; for % activity: ALOMY, 18 DAT
Method in brief: (§1)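 Herbicidal effect was assessed 20 DAT after pre-emergence treatment of sown pots, using a 0-100 scale where 100 means no emergence or destruction of at least the above-ground parts.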

Euphorbia heterophylla [1] = experiment: Greenhouse post-emergence (POST) herbicidal test on EPHHL; conditions: POST
Method in brief: (§2)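 Sow or transplant seedlings into loamy-sand pots; grow to 3–15 cm; spray aqueous suspension/emulsion of actives from a 5% by weight emulsion concentrate; hold at 10-25° C or 20-35° C depending on species; score injury 0–100 at 20 DAT.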

Euphorbia heterophylla [2] = experiment: Greenhouse pre-emergence (PRE) herbicidal test on EPHHL; conditions: PRE; for % activity: EPHHL, 18 DAT
Method in brief: as §1

Echinochloa crus-galli [3] = experiment: Greenhouse post-emergence (POST) herbicidal test on ECHCG; conditions: POST, ECHCG, 18 DAT
Method in brief: as §2

Digitaria sanguinalis = experiment: Greenhouse post-emergence (POST) herbicidal test on DIGSA; conditions: POST, DIGSA, 18 DAT
Method in brief: as §2

Amaranthus retroflexus [4] = experiment: Greenhouse post-emergence (POST) herbicidal test on AMARE; conditions: POST
Method in brief: as §2

Geranium pusillum = experiment: Greenhouse post-emergence (POST) herbicidal test on GERPU; conditions: POST; for % activity: GERPU, 18 DAT
Method in brief: as §2

Abutilon theophrasti [5] = experiment: Greenhouse post-emergence (POST) herbicidal test on ABUTH; conditions: POST; for % activity: ABUTH, 18 DAT
Method in brief: as §2

Commelina benghalensis = experiment: Greenhouse pre-emergence (PRE) herbicidal test on COMBE; conditions: PRE; for % activity: COMBE, 18 DAT
Method in brief: as §1

Lolium multiflorum = experiment: Greenhouse pre-emergence (PRE) herbicidal test on LOLMU; conditions: PRE; for % activity: LOLMU, 18 DAT
Method in brief: as §1

Amaranthus retroflexus [6] = experiment: Greenhouse pre-emergence (PRE) herbicidal test on AMARE; conditions: PRE; for % activity: AMARE, 18 DAT
Description: (§3) The culture containers used were plastic pots containing loamy sand with approximately 3.0% of humus as substrate. The seeds of the test plants were sown separately for each species.
The containers were irrigated gently to promote germination and growth and subsequently covered with transparent plastic hoods until the plants had rooted.
(§4) Depending on the species, the plants were kept at 10-25° C. and 20-35° C., respectively.
(§5) The test period extended over 2 to 4 weeks. During this time, the plants were tended and their response to the individual treatments was evaluated.
(§6) Evaluation was carried out using a scale from 0 to 100. 100 means no emergence of the plants, or complete destruction of at least the above-ground parts, and 0 means no damage or normal course of growth. A good herbicidal activity is given at values of at least 70, and very good herbicidal activity is given at values of at least 85.
As indicated application was either post emergent (POST) at the respective growth stage (GS) of the weed (BBCH code), or pre-emergent (PRE). […]

Echinochloa crus-galli [7] = experiment: Greenhouse pre-emergence (PRE) herbicidal test on ECHCG; conditions: PRE, ECHCG, 18 DAT
Abutilon theophrasti [8] = experiment: Greenhouse pre-emergence (PRE) herbicidal test on ABUTH; conditions: PRE; for % activity: ABUTH, 18 DAT
Method in brief: as §1

Ipomoea hederacea = experiment: Greenhouse post-emergence (POST) herbicidal test on IPOHE; conditions: Ipomoea hederacea, post-emergence, 480 h, POST, 20 DAT
Description: as §3
For the post-emergence treatment, the test plants were grown to a plant height of from 3 to 15 cm, depending on the plant habit, and only then treated with the active compounds which had been suspended or emulsified in water. To this end, the test plants were either sown directly, and grown in the same containers, or they were first grown separately as seedlings and transplanted into the test containers a few days prior to treatment.
as §4, §5, §6
If not stated differently, the respective components A and B, and if appropriate, C were formulated as a 5% by weight strength emulsion concentrate and, with addition of the amount of solvent system, introduced into the spray liquor used for applying the active compound.
As indicated application was either post emergent (POST) at the respective growth stage (GS) of the weed (BBCH code), or pre-emergent (PRE).
Assessment was 20 days after treatment (DAT).

Ambrosia artemisiifolia = experiment: Greenhouse pre-emergence (PRE) herbicidal test on AMBEL; conditions: Ambrosia artemisiifolia, pre-emergence, 480 h, PRE, 20 DAT

SMILES: Cc1ccc2c(c1)[C@H](Nc1nc(N)nc(C(C)F)n1)[C@@H](C)C2 (stereo partly shown) [Indaziflam, indaziflam]
- % activity (Setaria viridis; SETVI, Indaziflam solo 1 gai/ha, 18 DAT): 40%
- % activity (Alopecurus myosuroides; Indaziflam solo 1 gai/ha): 10%
- % activity (Alopecurus myosuroides; Indaziflam solo 4 gai/ha): 75%
- % activity (Euphorbia heterophylla [1]; EPHHL, Indaziflam solo 4 gai/ha, 18 DAT): 40%
- % activity (Euphorbia heterophylla [2]; Indaziflam solo 1 gai/ha): 10%
- % activity (Euphorbia heterophylla [2]; Indaziflam solo 4 gai/ha): 5%
- % activity (Echinochloa crus-galli [3]; Indaziflam solo 1 gai/ha): 0%
- % activity (Echinochloa crus-galli [3]; Indaziflam solo 2 gai/ha): 0%
- % activity (Echinochloa crus-galli [3]; Indaziflam solo 4 gai/ha): 20%
- % activity (Echinochloa crus-galli [3]; Indaziflam solo 8 gai/ha): 60%
- % activity (Digitaria sanguinalis; Indaziflam solo 1 gai/ha): 0%
- % activity (Digitaria sanguinalis; Indaziflam solo 2 gai/ha): 5%
- % activity (Digitaria sanguinalis; Indaziflam solo 8 gai/ha): 20%
- % activity (Amaranthus retroflexus [4]; AMARE, Indaziflam solo 1 gai/ha, 18 DAT): 65%
- % activity (Geranium pusillum; Indaziflam solo 4 gai/ha): 50%
- % activity (Geranium pusillum; Indaziflam solo 8 gai/ha): 50%
- % activity (Abutilon theophrasti [5]; Indaziflam solo 2 gai/ha): 15%
- % activity (Abutilon theophrasti [5]; Indaziflam solo 4 gai/ha): 30%
- % activity (Commelina benghalensis; Indaziflam solo 1 gai/ha): 20%
- % activity (Commelina benghalensis; Indaziflam solo 2 gai/ha): 10%
- % activity (Commelina benghalensis; Indaziflam solo 8 gai/ha): 40%
- % activity (Lolium multiflorum; Indaziflam solo 1 gai/ha): 10%
- % activity (Lolium multiflorum; Indaziflam solo 2 gai/ha): 10%
- % activity (Lolium multiflorum; Indaziflam solo 4 gai/ha): 40%
- % activity (Amaranthus retroflexus [6]; Indaziflam solo 1 gai/ha): 10%
- % activity (Amaranthus retroflexus [6]; Indaziflam solo 4 gai/ha): 50%
- % activity (Echinochloa crus-galli [7]; Indaziflam solo 1 gai/ha): 30%
- % activity (Echinochloa crus-galli [7]; Indaziflam solo 4 gai/ha): 85%
- % activity (Echinochloa crus-galli [7]; Indaziflam solo 8 gai/ha): 80%
- % activity (Abutilon theophrasti [8]; Indaziflam solo 1 gai/ha): 0%
- % activity (Abutilon theophrasti [8]; Indaziflam solo 4 gai/ha): 25%

SMILES: CC(C)N(C(=O)SCC(Cl)=C(Cl)Cl)C(C)C [Tri-Allate, Tri-allate]
- pest or weed control at 600 g/ha (Ipomoea hederacea; 600 gai/ha): 10%
- pest or weed control at 1200 g/ha (Ipomoea hederacea; 1200 gai/ha): 0%
- pest or weed control at 600 g/ha (Setaria viridis; Setaria viridis, pre-emergence, 480 h, 600 gai/ha, 20 DAT): 0%
- pest or weed control at 1200 g/ha (Alopecurus myosuroides; Alopecurus myosuroides, pre-emergence, 480 h, 1200 gai/ha, 20 DAT): 0%
- pest or weed control at 600 g/ha (Euphorbia heterophylla [1]; Euphorbia heterophylla, post-emergence, 480 h, 600 gai/ha, 20 DAT): 10%
- pest or weed control at 1200 g/ha (Euphorbia heterophylla [1]; Euphorbia heterophylla, post-emergence, 480 h, 1200 gai/ha, 20 DAT): 10%
- pest or weed control at 600 g/ha (Euphorbia heterophylla [2]; Euphorbia heterophylla, pre-emergence, 480 h, 600 gai/ha, 20 DAT): 10%
- pest or weed control at 1200 g/ha (Euphorbia heterophylla [2]; Euphorbia heterophylla, pre-emergence, 480 h, 1200 gai/ha, 20 DAT): 10%
- pest or weed control at 600 g/ha (Amaranthus retroflexus [4]; Amaranthus retroflexus, post-emergence, 480 h, 600 gai/ha, 20 DAT): 25%
- pest or weed control at 1200 g/ha (Amaranthus retroflexus [4]; Amaranthus retroflexus, post-emergence, 480 h, 1200 gai/ha, 20 DAT): 45%
- pest or weed control at 600 g/ha (Geranium pusillum; Geranium pusillum, post-emergence, 480 h, 600 gai/ha, 20 DAT): 10%
- pest or weed control at 1200 g/ha (Abutilon theophrasti [5]; Abutilon theophrasti, post-emergence, 480 h, 1200 gai/ha, 20 DAT): 0%
- pest or weed control at 600 g/ha (Commelina benghalensis; Commelina benghalensis, pre-emergence, 480 h, 600 gai/ha, 20 DAT): 0%
- pest or weed control at 600 g/ha (Lolium multiflorum; Lolium multiflorum, pre-emergence, 480 h, 600 gai/ha, 20 DAT): 0%
- pest or weed control at 1200 g/ha (Lolium multiflorum; Lolium multiflorum, pre-emergence, 480 h, 1200 gai/ha, 20 DAT): 10%
- pest or weed control at 600 g/ha (Amaranthus retroflexus [6]; Amaranthus retroflexus, pre-emergence, 480 h, 600 gai/ha, 20 DAT): 10%
- pest or weed control at 1200 g/ha (Amaranthus retroflexus [6]; Amaranthus retroflexus, pre-emergence, 480 h, 1200 gai/ha, 20 DAT): 10%
- pest or weed control at 600 g/ha (Abutilon theophrasti [8]; Abutilon theophrasti, pre-emergence, 480 h, 600 gai/ha, 20 DAT): 10%
- pest or weed control at 600 g/ha (Ambrosia artemisiifolia; 600 gai/ha): 10%
- pest or weed control at 1200 g/ha (Ambrosia artemisiifolia; 1200 gai/ha): 25%

SMILES: CCNc1nc(Cl)nc(NC(C)(C)C)n1 [Terbutylazine]
- pest or weed control at 15.6 g/ha (Ipomoea hederacea; 15.6 gai/ha): 0%
- pest or weed control at 15.6 g/ha (Alopecurus myosuroides; Alopecurus myosuroides, pre-emergence, 480 h, 15.6 gai/ha, 20 DAT): 0%
- pest or weed control at 62.5 g/ha (Alopecurus myosuroides; Alopecurus myosuroides, pre-emergence, 480 h, 62.5 gai/ha, 20 DAT): 0%
- pest or weed control at 62.5 g/ha (Euphorbia heterophylla [2]; Euphorbia heterophylla, pre-emergence, 480 h, 62.5 gai/ha, 20 DAT): 0%
- pest or weed control at 62.5 g/ha (Amaranthus retroflexus [4]; Amaranthus retroflexus, post-emergence, 480 h, 62.5 gai/ha, 20 DAT): 60%
- pest or weed control at 62.5 g/ha (Abutilon theophrasti [5]; Abutilon theophrasti, post-emergence, 480 h, 62.5 gai/ha, 20 DAT): 0%
- pest or weed control at 15.6 g/ha (Commelina benghalensis; Commelina benghalensis, pre-emergence, 480 h, 15.6 gai/ha, 20 DAT): 0%
- pest or weed control at 62.5 g/ha (Commelina benghalensis; Commelina benghalensis, pre-emergence, 480 h, 62.5 gai/ha, 20 DAT): 0%
- pest or weed control at 15.6 g/ha (Lolium multiflorum; Lolium multiflorum, pre-emergence, 480 h, 15.6 gai/ha, 20 DAT): 0%
- pest or weed control at 62.5 g/ha (Amaranthus retroflexus [6]; Amaranthus retroflexus, pre-emergence, 480 h, 62.5 gai/ha, 20 DAT): 0%
- pest or weed control at 15.6 g/ha (Abutilon theophrasti [8]; Abutilon theophrasti, pre-emergence, 480 h, 15.6 gai/ha, 20 DAT): 0%
- pest or weed control at 62.5 g/ha (Abutilon theophrasti [8]; Abutilon theophrasti, pre-emergence, 480 h, 62.5 gai/ha, 20 DAT): 0%
- pest or weed control at 15.6 g/ha (Ambrosia artemisiifolia; 15.6 gai/ha): 0%
